This is an account of results in patent US9944611B2, “Polymerizable resins containing a 1,3,5-hexahydro-1,3,5-triazine moiety, methods of making, and dental compositions containing the same” (DENTSPLY SIRONA INC., priority 2013, dated 2018).

The series in a line: Solubility of hydroxy-terminated TAT derivatives in water/EtOH (1:1). It is filed as physicochemical. The text has this: A sample of each of the examples was then subjected to further characterization and testing, including by NMR, along with pure TAT. The results are summarized in Table 1, which illustrates, among other things, that the increased amounts of DEA improved the solubility: […]

For `C=CC(=O)N1CN(C(=O)C=C)CN(C(=O)C=C)C1` [Parent Sample (TAT), 1,3,5-triacryloyl-hexahydro-1,3,5-triazine], the “Solubility in water/EtOH (1:1) @ 25% w/w” value is listed as “insoluble”.
